{"source": "patent US20080050448A1", "about": "“ANTIMICROBIAL CONJUGATES” (priority 2006, published 2008)", "key": {"[1]": {"system": "Staphylococcus aureus NCTC 6571", "assay": "Lethal photosensitisation of S. aureus by gold nanoparticle-photosensitiser mixtures, white light, viable counting", "type": "cell-based", "description": "Gold nanoparticles (2.0 nm diameter; British Biocell International) in water (15×10^13 particles per ml) were mixed with an equal volume of an aqueous solution of toluidine blue O (40 μM) and left at room temperature for 15 minutes. 100 μl of the gold-TB solution was added to 100 μl of a suspension of Staphylococcus aureus NCTC 6571 in phosphate buffered saline (PBS) and this was irradiated with white light from a fluorescent white lamp for 10 minutes. Controls consisted of:\n(i) TB (final concentration=10 μM) and bacteria, irradiated for the same period of time,\n(ii) nanogold (diluted 1:1 with water) and bacteria, irradiated for the same period of time,\n(iii) bacteria without TB or nanogold, not irradiated (“control”).\nAfter irradiation, the number of surviving bacteria was determined by viable counting. […] Note that the TB concentration and light energy dose used were designed to give sub-optimal kills so that differences in efficacy of the TB and the TB-nanogold could be discerned. Preliminary experiments using 30 minutes light exposure achieved total kills of the bacterial suspensions in both cases.\nGold nanoparticles of approximately 15 nm in diameter (batches NN1 and NN2 above) were mixed with an equal volume of aqueous toluidine blue O (TB) and left at room temperature for 15 minutes. TB was used at a final concentration of 1, 5, 10, 20 or 50 μM. 100 μl of the TB-gold mixture was added to 100 μl of a suspension of Staphylococcus aureus NCTC 6571 in phosphate buffered saline (PBS) (adjusted to an optical density of 0.05), and samples were irradiated with a fluorescent white light (28 W) for 10 minutes. S. aureus+TB only, and S. aureus+PBS, without photosensitiser or nanogold were used as controls. The final concentration of nanogold used was 1×10^15 particles/ml. After irradiation, the numbers of surviving bacteria were enumerated by viable counting.\nThe method of Example 2 was repeated using gold nanoparticles of 2 nm diameter (British Biocell International). The final concentration of nanogold used was 4×10^13 particles/ml. […]"}, "[2]": {"system": "Staphylococcus aureus NCTC 6571", "assay": "Lethal photosensitisation of S. aureus by TBO-tiopronin-gold nanoparticle conjugate, white light (and dark controls), viable counting", "type": "cell-based"}}, "data": [{"smiles": "Cc1cc2nc3ccc(N(C)C)cc3[s+]c2cc1N.[Cl-]", "note": "[TB only, toluidine blue O]", "values": [{"measurement": "% Kill", "setting": "[1]; 10 min 28 W fluorescent white lamp, 2.0 nm gold, TB final 10 μM", "value": 93.7, "unit": "%"}, {"measurement": "kill of the bacterial suspension", "setting": "[1]; preliminary experiments, 30 minutes light exposure", "value": "total kills"}, {"measurement": "S. aureus (cfu/ml)", "setting": "[1]; surviving bacteria after 10 min 28 W fluorescent white lamp, 2.0 nm gold, TB final 10 μM", "value": 8570000, "unit": "cfu/ml"}, {"measurement": "effect on S. aureus", "setting": "[2]; irradiated with white light for any length of time (15, 30, 45 minutes)", "value": "no effect"}, {"measurement": "concentration at which significant kills of the organism were exhibited (only at this concentration)", "setting": "[2]; white light 30 mins", "value": 2.0, "unit": "μm"}]}]}
